Experimental data reported in PubChem BioAssay (NCI).
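Method: 48-hour compound exposure of cells in 96-well plates, five concentrations, linear interpolation of endpoints. GI50: concentration for 50% inhibition of growth. TGI is the concentration that stops growth completely.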

The molecules below were run on NCI-H226 lung (assay: DTP human tumour cell line panel, 48 h).

| Compound | TGI [µM] | GI50 [µM] |
| --- | --- | --- |
| Cc1cc(NS(=O)(=O)c2ccc(NC(=O)c3cccc4c(=O)c5ccccc5[nH]c34)cc2)no1 | > 100 |  |
| O=C(/C=C/c1ccccc1Cl)c1ccccc1Cl | > 100 |  |
| COC(=O)C1=C(c2ccc3c(c2)OCO3)O[C@H](c2ccc3c(c2)OCO3)[C@H]1COC(C)=O | > 100 |  |
| CCOC(=O)[C@H]1Nc2ccc(C)cc2C2c3ccccc3CC21 (stereo partly drawn) | > 100 |  |
| N#CCCN(CCC#N)c1ccc(/C=C2\N=C(CN3C(=O)c4ccccc4C3=O)OC2=O)cc1 | > 100 |  |
| CSc1nc(NC2OC(COC(C)=O)C(OC(C)=O)C(OC(C)=O)C2OC(C)=O)c2c(OC(C)=O)c(C)c(=O)oc2n1 (stereo not drawn) | > 100 |  |
| O=C(NC1CCCCCC1)C1C(=O)N(C2CCCCCC2)C(=O)/C1=N\O (stereo not drawn) | > 100 |  |
| COc1ccc(C(=O)O)c(Cc2cccc3ccccc23)c1 | > 100 |  |
| CC#CC(=O)Nc1ccccc1CC(c1c[nH]c2ccccc12)c1c[nH]c2ccccc12 | 32.6 |  |
| NCCCNCCSSCCCCS(=O)O | > 100 |  |
| COC(=O)C(=O)C(C(=O)C=C(C)C)C(=O)C(=O)Nc1ccc(Cl)cc1C (stereo not drawn) | > 100 |  |
| Cc1cccc(C(C)(C)C)c1NC(=O)CCc1n[nH]c(=S)o1 | 0.832 |  |
| Cc1ccc(C(=O)/C=C/c2ccccc2O)c(C)c1 | > 100 |  |
| N#Cc1cnsc1 | > 100 |  |
| CCOC(=O)NC(=O)c1cn(CCCOC(=O)NCCCCCCNC(=O)OCCCn2c(=O)c(C(=O)NC(=O)OCC)cn(C)c2=O)c(=O)n(C)c1=O | > 100 |  |
| O=C1C2=C(CC3C(C2)C3(Br)Br)C(=O)C2=C1CC1C(C2)C1(Br)Br (stereo not drawn) | > 100 |  |
| COc1ccc(C2CC(=O)c3c(O)c(OC)c(OC)c(OC)c3O2)c(O)c1 (stereo not drawn) | 24.7 | 4.49 |
| CC(=O)c1ccc(NC(=O)/C(Cc2ccccn2)=N/NC(=O)C[N+](C)(C)C)cc1 | > 100 |  |
| CCc1cccc(C)c1NC(C)=O | > 100 |  |
| O=C(CC(=O)N1N=C(c2ccccc2)C(N=Nc2ccc(Cl)cc2)C1=O)Nc1ccccc1Cl (stereo not drawn) | 62.6 |  |

Each molecule was assayed on HOP-92 NSCLC (assay: DTP human tumour cell line panel, 48 h).

| Compound | TGI [µM] | GI50 [µM] |
| --- | --- | --- |
| CCCCCCCCCCCCCCCCOP(=O)(O)Oc1ccc(/C=C\c2ccc(OP(=O)(O)OCCCCCCCCCCCCCCCC)cc2)cc1 | 67.1 |  |
| CCN(CC)C(=O)C/C(C)=N/NC(=O)c1ccncc1 | > 100 |  |
| Cc1ccc(N=NC(C(=O)c2ccccc2)C(=O)c2ccccc2)cc1 | 41.5 |  |
| Cc1ccc(NC(=O)C2C(=O)N(c3ccc(C)c(C)c3)C(=O)/C2=N/O)cc1C (stereo not drawn) | > 100 |  |
| Nc1c(-c2ccc(Br)cc2)[n+]([O-])c2ccccc2[n+]1[O-] | > 100 |  |
| CNC=O.[O]=[Ge].[O]=[Ge].[O]=[Ge].[O]=[Ge][OH].[O]=[Ge][OH] | > 100 |  |
| Cc1cc(NS(=O)(=O)c2ccc(NC(=O)c3cccc4c(=O)c5ccccc5[nH]c34)cc2)no1 | > 100 |  |
| O=C(/C=C/c1ccccc1Cl)c1ccccc1Cl | 77.2 |  |
| COC(=O)C1=C(c2ccc3c(c2)OCO3)O[C@H](c2ccc3c(c2)OCO3)[C@H]1COC(C)=O | > 100 |  |
| CSc1nc(NC2OC(COC(C)=O)C(OC(C)=O)C(OC(C)=O)C2OC(C)=O)c2c(OC(C)=O)c(C)c(=O)oc2n1 (stereo not drawn) | > 100 |  |
| O=C(NC1CCCCCC1)C1C(=O)N(C2CCCCCC2)C(=O)/C1=N\O (stereo not drawn) | 46.1 |  |
| NCCCNCCSSCCCCS(=O)O | > 100 |  |
| COC(=O)C(=O)C(C(=O)C=C(C)C)C(=O)C(=O)Nc1ccc(Cl)cc1C (stereo not drawn) | > 100 |  |
| Cc1cccc(C(C)(C)C)c1NC(=O)CCc1n[nH]c(=S)o1 | > 100 |  |
| Cc1ccc(C(=O)/C=C/c2ccccc2O)c(C)c1 | > 100 |  |
| N#Cc1cnsc1 | > 100 |  |
| CC(=O)SCCC1c2[nH]c3ccccc3c2CCN1O (stereo not drawn) | > 100 |  |
| CCOC(=O)NC(=O)c1cn(CCCOC(=O)NCCCCCCNC(=O)OCCCn2c(=O)c(C(=O)NC(=O)OCC)cn(C)c2=O)c(=O)n(C)c1=O | > 100 |  |
| O=C1C2=C(CC3C(C2)C3(Br)Br)C(=O)C2=C1CC1C(C2)C1(Br)Br (stereo not drawn) | > 100 |  |
| CC(C)=CC(=O)N1CCN(C(=O)C=C(C)C)CC1 | > 100 |  |
| COc1ccc(C2CC(=O)c3c(O)c(OC)c(OC)c(OC)c3O2)c(O)c1 (stereo not drawn) | 13.9 | 0.0574 |

The molecules below were run on LOX IMVI melanoma (assay: DTP human tumour cell line panel, 48 h).

| Compound | TGI [µM] | GI50 [µM] |
| --- | --- | --- |
| CCCCCCCCCCCCCCCCOP(=O)(O)Oc1ccc(/C=C\c2ccc(OP(=O)(O)OCCCCCCCCCCCCCCCC)cc2)cc1 | > 100 |  |
| CCN(CC)C(=O)C/C(C)=N/NC(=O)c1ccncc1 | > 100 |  |
| CN(C)C(=S)/N=c1\ss/c(=N\C(=S)N(C)C)n1-c1ccc2c(c1)OCO2 | > 100 |  |
| COC(=O)C(=O)C(C(=O)C(=O)Nc1ccc(C)cc1C)c1nc2ccccc2[nH]c1=O (stereo not drawn) | > 100 |  |
| Cc1ccc(NC(=O)C2C(=O)N(c3ccc(C)c(C)c3)C(=O)/C2=N/O)cc1C (stereo not drawn) | 38.3 |  |
| CNC=O.[O]=[Ge].[O]=[Ge].[O]=[Ge].[O]=[Ge][OH].[O]=[Ge][OH] | > 100 |  |
| N#CCCN(c1ccc(/C=C2\N=C(c3ccc(Cl)cc3)OC2=O)cc1)S(=O)(=O)c1ccccc1 | > 100 |  |
| Cc1cc(NS(=O)(=O)c2ccc(NC(=O)c3cccc4c(=O)c5ccccc5[nH]c34)cc2)no1 | > 100 |  |
| COC(=O)C1=C(c2ccc3c(c2)OCO3)O[C@H](c2ccc3c(c2)OCO3)[C@H]1COC(C)=O | > 100 |  |
| CC(C)=[CH][Sb]([Br])([CH]=C(C)C)([CH]=C(C)C)[CH]=C(C)C | > 100 | 31.6 |
| CCOC(=O)[C@H]1Nc2ccc(C)cc2C2c3ccccc3CC21 (stereo partly drawn) | > 100 |  |
| N#CCCN(CCC#N)c1ccc(/C=C2\N=C(CN3C(=O)c4ccccc4C3=O)OC2=O)cc1 | > 100 |  |
| CSc1nc(NC2OC(COC(C)=O)C(OC(C)=O)C(OC(C)=O)C2OC(C)=O)c2c(OC(C)=O)c(C)c(=O)oc2n1 (stereo not drawn) | > 100 |  |
| O=C(NC1CCCCCC1)C1C(=O)N(C2CCCCCC2)C(=O)/C1=N\O (stereo not drawn) | > 100 |  |
| COc1ccc(C(=O)O)c(Cc2cccc3ccccc23)c1 | > 100 |  |
| CC#CC(=O)Nc1ccccc1CC(c1c[nH]c2ccccc12)c1c[nH]c2ccccc12 | 33.8 |  |
| NCCCNCCSSCCCCS(=O)O | 21.6 |  |
| COC(=O)C(=O)C(C(=O)C=C(C)C)C(=O)C(=O)Nc1ccc(Cl)cc1C (stereo not drawn) | > 100 |  |
| Cc1ccc(C(=O)/C=C/c2ccccc2O)c(C)c1 | > 100 |  |
| O=S(O)CCCCSSCCCCSSCCCCS(=O)O | > 100 |  |
| N#Cc1cnsc1 | > 100 |  |
| CC(=O)SCCC1c2[nH]c3ccccc3c2CCN1O (stereo not drawn) | > 100 |  |
| CCOC(=O)NC(=O)c1cn(CCCOC(=O)NCCCCCCNC(=O)OCCCn2c(=O)c(C(=O)NC(=O)OCC)cn(C)c2=O)c(=O)n(C)c1=O | > 100 |  |
| O=C1C2=C(CC3C(C2)C3(Br)Br)C(=O)C2=C1CC1C(C2)C1(Br)Br (stereo not drawn) | > 100 |  |
| CC(C)=CC(=O)N1CCN(C(=O)C=C(C)C)CC1 | > 100 |  |
| COc1ccc(C2CC(=O)c3c(O)c(OC)c(OC)c(OC)c3O2)c(O)c1 (stereo not drawn) | 19.2 | 0.432 |
| CC(=O)c1ccc(NC(=O)/C(Cc2ccccn2)=N/NC(=O)C[N+](C)(C)C)cc1 | > 100 |  |
| O=C(CC(=O)N1N=C(c2ccccc2)C(N=Nc2ccc(Cl)cc2)C1=O)Nc1ccccc1Cl (stereo not drawn) | > 100 |  |
